Results on 3 compounds are retold here after ChEMBL document CHEMBL6134895, “Strategic Design and Optimization of Umifenovir Analogues: Balancing Antiviral Efficacy and hERG Toxicity against SARS-CoV-2” (J Med Chem, 2025).

Where only a bound is given, the exact number is not on record here.

Sequence of Voltage-gated inwardly rectifying potassium channel KCNH2 (Q12809 whole entry): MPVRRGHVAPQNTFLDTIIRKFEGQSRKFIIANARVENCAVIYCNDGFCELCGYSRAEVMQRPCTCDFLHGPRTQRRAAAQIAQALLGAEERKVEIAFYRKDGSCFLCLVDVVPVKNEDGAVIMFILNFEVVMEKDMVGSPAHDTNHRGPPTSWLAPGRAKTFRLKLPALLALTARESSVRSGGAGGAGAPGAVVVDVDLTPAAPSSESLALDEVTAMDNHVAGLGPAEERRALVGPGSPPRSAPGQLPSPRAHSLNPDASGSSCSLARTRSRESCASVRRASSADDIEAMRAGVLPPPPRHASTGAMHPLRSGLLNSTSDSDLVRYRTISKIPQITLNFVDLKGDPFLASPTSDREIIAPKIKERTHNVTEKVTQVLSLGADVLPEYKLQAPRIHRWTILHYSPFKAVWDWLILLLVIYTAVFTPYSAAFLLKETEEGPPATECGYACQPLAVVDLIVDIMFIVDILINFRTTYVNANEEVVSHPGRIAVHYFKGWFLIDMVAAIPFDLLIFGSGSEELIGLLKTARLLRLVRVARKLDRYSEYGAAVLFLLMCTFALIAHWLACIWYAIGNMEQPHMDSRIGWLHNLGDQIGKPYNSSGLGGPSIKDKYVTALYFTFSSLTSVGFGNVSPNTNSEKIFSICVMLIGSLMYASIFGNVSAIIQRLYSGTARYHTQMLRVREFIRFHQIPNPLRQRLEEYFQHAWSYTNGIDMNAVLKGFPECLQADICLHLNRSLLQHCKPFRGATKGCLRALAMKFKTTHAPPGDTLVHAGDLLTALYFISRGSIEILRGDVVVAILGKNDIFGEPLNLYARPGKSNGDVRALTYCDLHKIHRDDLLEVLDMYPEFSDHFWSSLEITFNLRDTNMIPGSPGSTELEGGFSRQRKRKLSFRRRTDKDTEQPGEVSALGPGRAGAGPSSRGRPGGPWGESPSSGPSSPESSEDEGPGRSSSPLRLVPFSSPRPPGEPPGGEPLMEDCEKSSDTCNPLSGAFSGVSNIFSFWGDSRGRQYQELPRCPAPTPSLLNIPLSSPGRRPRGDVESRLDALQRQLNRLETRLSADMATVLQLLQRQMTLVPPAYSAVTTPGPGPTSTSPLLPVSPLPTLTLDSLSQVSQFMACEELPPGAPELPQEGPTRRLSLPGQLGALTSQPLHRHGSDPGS

Test system in one series: not listed separately
Description: Microsomal stability in human liver microsomes assessed as half life at 100 uM preincubated for 15 mins followed by NADPH addition measured up to 60 mins by LC-MS/MS analysis. Type of series: ADME, Microsome. The settings on record: time < 75 min. (Liver microsomes are vesicles of endoplasmic reticulum, rich in cytochrome P450 enzymes.)
With `Cc1ccc(Cn2c(CSc3c(C)cc(C)cc3C)c(C(=O)NC3CCN(C(C)C)CC3)c3cc(O)c(Br)cc32)cc1`, the half-life (in general, how long it takes for the measured level to halve) at 100 µM came to 1.5 h.
On to `CN(C)CCCCNC(=O)c1c(CSc2ccc(F)cc2)n(C)c2cc(Br)c(O)cc12`, for which the half-life at 100 µM came to 0.52 h.
In the case of `CCOC(=O)c1c(CSc2c(C)cc(C)cc2C)n(Cc2ccc(C)cc2)c2cc(Br)c(O)cc12`, the half-life at 100 µM is 0.288 h.

Test system in another series: not listed separately
Briefly: Stability in mouse plasma assessed as compound remaining at 2 uM measured after 60 mins by LC-MS/MS analysis. The settings on record: read-out: Stability. Type of series: ADME, cell-free.
Take `Cc1ccc(Cn2c(CSc3c(C)cc(C)cc3C)c(C(=O)NC3CCN(C(C)C)CC3)c3cc(O)c(Br)cc32)cc1`: the remaining at 1 h, 2 µM is 74.8%.
For `CN(C)CCCCNC(=O)c1c(CSc2ccc(F)cc2)n(C)c2cc(Br)c(O)cc12`, the remaining at 1 h, 2 µM stood at 41.6%.
On the same count and under the same terms, with `CCOC(=O)c1c(CSc2c(C)cc(C)cc2C)n(Cc2ccc(C)cc2)c2cc(Br)c(O)cc12` the figure was 111%.

The next series concerns SARS-CoV-2. Briefly: Potency index, ratio of Arbidol IC50 to test compound IC50 for antiviral activity against SARS CoV-2 Wuhan infected in African green monkey Vero E6 cells assessed as inhibition of viral replication pretreated for 15 mins followed by compound removal and induction of viral infection for 1 hr and subsequent removal of inoculum and further addition of media containing compound measured after 24 hrs …. Type of series: functional, Severe acute respiratory syndrome coronavirus 2. The conditions noted are these: time 24.25 hrs.
As for `Cc1ccc(Cn2c(CSc3c(C)cc(C)cc3C)c(C(=O)NC3CCN(C(C)C)CC3)c3cc(O)c(Br)cc32)cc1`, the “Ratio IC50” value was around 13.

Test system in another series: not listed separately
Description: Stability in mouse plasma assessed as half life at 2 uM measured up to 120 mins by LC-MS/MS analysis. Format: ADME, cell-free.
Settings: not given
With `Cc1ccc(Cn2c(CSc3c(C)cc(C)cc3C)c(C(=O)NC3CCN(C(C)C)CC3)c3cc(O)c(Br)cc32)cc1`, the half-life at 2 µM was above 4 h.
For `CN(C)CCCCNC(=O)c1c(CSc2ccc(F)cc2)n(C)c2cc(Br)c(O)cc12`, the half-life at 2 µM was 1 h.
For `CCOC(=O)c1c(CSc2c(C)cc(C)cc2C)n(Cc2ccc(C)cc2)c2cc(Br)c(O)cc12`, the half-life at 2 µM was above 2 h.

Test system in another series: not listed separately
Briefly: Microsomal stability in human liver microsomes assessed as compound remaining at 100 uM preincubated for 15 mins followed by NADPH addition measured after 60 mins by LC-MS/MS analysis. The conditions noted are these: time 75 min, read-out: Stability. Type of series: ADME, Microsome.
With `Cc1ccc(Cn2c(CSc3c(C)cc(C)cc3C)c(C(=O)NC3CCN(C(C)C)CC3)c3cc(O)c(Br)cc32)cc1`, the remaining at 1 h, 100 µM is 59.4%.
The same measure, in the same setting: with `CN(C)CCCCNC(=O)c1c(CSc2ccc(F)cc2)n(C)c2cc(Br)c(O)cc12` the figure was 28%; with `CCOC(=O)c1c(CSc2c(C)cc(C)cc2C)n(Cc2ccc(C)cc2)c2cc(Br)c(O)cc12`, 8.56%.

Test system in the next series: not listed separately
Description: Stability in human plasma assessed as half life at 2 uM measured up to 120 mins by LC-MS/MS analysis.
Settings: not given
Type of series: ADME, cell-free.
As to `Cc1ccc(Cn2c(CSc3c(C)cc(C)cc3C)c(C(=O)NC3CCN(C(C)C)CC3)c3cc(O)c(Br)cc32)cc1`, the half-life at 2 µM was above 4 h.
Regarding `CN(C)CCCCNC(=O)c1c(CSc2ccc(F)cc2)n(C)c2cc(Br)c(O)cc12`, the half-life at 2 µM was below 2 h.
Still for that read-out and setting: in the case of `CCOC(=O)c1c(CSc2c(C)cc(C)cc2C)n(Cc2ccc(C)cc2)c2cc(Br)c(O)cc12` it was above 2 h.

Another series relates to SARS-CoV-2. Briefly: Antiviral activity against SARS CoV-2 Wuhan infected in African green monkey Vero E6 cells assessed as virus inactivation at 5 uM pretreated for 15 mins followed by compound removal and induction of viral infection for 1 hr and subsequent removal of inoculum and further addition of media containing compound measured after 48 hrs by RT-qPCR analysis relative to control. Type of series: functional, Severe acute respiratory syndrome coronavirus 2. The settings on record: time 48.25 hrs. Background: Real-time PCR tracks product formation cycle by cycle.
Turning to `CCOC(=O)c1c(CSc2c(C)cc(C)cc2C)n(Cc2ccc(C)cc2)c2cc(Br)c(O)cc12`, the Activity is recorded as above 99%.

Test system in the next series: not listed separately
Description: Microsomal stability in human liver microsomes assessed as intrinsic clearance measured per mg protein at 100 uM preincubated for 15 mins followed by NADPH addition measured up to 60 mins by LC-MS/MS analysis. Format: ADME, Microsome. The settings on record: time < 75 min, read-out: CLH.
Regarding `Cc1ccc(Cn2c(CSc3c(C)cc(C)cc3C)c(C(=O)NC3CCN(C(C)C)CC3)c3cc(O)c(Br)cc32)cc1`, the microsomal CLint at 100 µM amounted to 15.5 µL/min/mg.
Consider `CN(C)CCCCNC(=O)c1c(CSc2ccc(F)cc2)n(C)c2cc(Br)c(O)cc12`, for which the microsomal CLint at 100 µM was 22.2 µL/min/mg.
Take `CCOC(=O)c1c(CSc2c(C)cc(C)cc2C)n(Cc2ccc(C)cc2)c2cc(Br)c(O)cc12`: the microsomal CLint at 100 µM came out at 193 µL/min/mg.

Another series addresses Voltage-gated inwardly rectifying potassium channel KCNH2 (Homo sapiens, UniProt Q12809). Description: Inhibition of hERG extracted from membrane (unknown origin) incubated for 4 hrs by fluorescence polarization assay. Format: toxicity, cell membranes.
Settings: not given
Background: The hERG channel carries a current that helps repolarise heart muscle cells.
On to `Cc1ccc(Cn2c(CSc3c(C)cc(C)cc3C)c(C(=O)NC3CCN(C(C)C)CC3)c3cc(O)c(Br)cc32)cc1`, for which inhibition was half-maximal at 10600 nM (IC50).
Consider `CN(C)CCCCNC(=O)c1c(CSc2ccc(F)cc2)n(C)c2cc(Br)c(O)cc12`, for which inhibition was half-maximal at 9850 nM (IC50).
In the case of `CCOC(=O)c1c(CSc2c(C)cc(C)cc2C)n(Cc2ccc(C)cc2)c2cc(Br)c(O)cc12`, the IC50 (in general, the point on the concentration scale where inhibition reaches its midpoint) is above 30000 nM.

Test system in a further series: not listed separately
Description: Microsomal stability in mouse liver microsomes assessed as half life at 100 uM preincubated for 15 mins followed by NADPH addition measured up to 60 mins by LC-MS/MS analysis. Type of series: ADME, Microsome. The settings on record: time < 75 min.
`Cc1ccc(Cn2c(CSc3c(C)cc(C)cc3C)c(C(=O)NC3CCN(C(C)C)CC3)c3cc(O)c(Br)cc32)cc1`: the half-life at 100 µM stood at 2 h.
On the same count and under the same terms, with `CN(C)CCCCNC(=O)c1c(CSc2ccc(F)cc2)n(C)c2cc(Br)c(O)cc12` the figure was 0.448 h.
For the compound `CCOC(=O)c1c(CSc2c(C)cc(C)cc2C)n(Cc2ccc(C)cc2)c2cc(Br)c(O)cc12`, the half-life at 100 µM was found to be 0.119 h.

Test system in a further series: not listed separately
Briefly: Microsomal stability in mouse liver microsomes assessed as compound remaining at 100 uM preincubated for 15 mins followed by NADPH addition measured after 60 mins by LC-MS/MS analysis. Format: ADME, Microsome. The conditions noted are these: time 75 min, read-out: Stability.
Regarding `Cc1ccc(Cn2c(CSc3c(C)cc(C)cc3C)c(C(=O)NC3CCN(C(C)C)CC3)c3cc(O)c(Br)cc32)cc1`, the remaining at 1 h, 100 µM is 80.1%.
Take `CN(C)CCCCNC(=O)c1c(CSc2ccc(F)cc2)n(C)c2cc(Br)c(O)cc12`: the remaining at 1 h, 100 µM stood at 21%.
Consider `CCOC(=O)c1c(CSc2c(C)cc(C)cc2C)n(Cc2ccc(C)cc2)c2cc(Br)c(O)cc12`, for which the remaining at 1 h, 100 µM is 1.23%.

Test system in the next series: not listed separately
Description: Stability in human plasma assessed as compound remaining at 2 uM measured after 60 mins by LC-MS/MS analysis. Format: ADME, cell-free. The settings on record: read-out: Stability.
Consider `Cc1ccc(Cn2c(CSc3c(C)cc(C)cc3C)c(C(=O)NC3CCN(C(C)C)CC3)c3cc(O)c(Br)cc32)cc1`, for which the remaining at 1 h, 2 µM is 57.6%.
For the compound `CN(C)CCCCNC(=O)c1c(CSc2ccc(F)cc2)n(C)c2cc(Br)c(O)cc12`, the remaining at 1 h, 2 µM is 70.6%.
As for `CCOC(=O)c1c(CSc2c(C)cc(C)cc2C)n(Cc2ccc(C)cc2)c2cc(Br)c(O)cc12`, the remaining at 1 h, 2 µM worked out at 87.8%.

Test system in a further series: not listed separately
Briefly: Microsomal stability in mouse liver microsomes assessed as intrinsic clearance measured per mg protein at 100 uM preincubated for 15 mins followed by NADPH addition measured up to 60 mins by LC-MS/MS analysis. The conditions noted are these: time < 75 min, read-out: CLH. Format: ADME, Microsome.
As for `Cc1ccc(Cn2c(CSc3c(C)cc(C)cc3C)c(C(=O)NC3CCN(C(C)C)CC3)c3cc(O)c(Br)cc32)cc1`, the microsomal CLint at 100 µM is 9.64 µL/min/mg.
In the case of `CN(C)CCCCNC(=O)c1c(CSc2ccc(F)cc2)n(C)c2cc(Br)c(O)cc12`, the microsomal CLint at 100 µM worked out at 25.8 µL/min/mg.
For the compound `CCOC(=O)c1c(CSc2c(C)cc(C)cc2C)n(Cc2ccc(C)cc2)c2cc(Br)c(O)cc12`, the microsomal CLint at 100 µM worked out at 80.2 µL/min/mg.

The test system of another series is SARS-CoV-2. Briefly: Antiviral activity against SARS CoV-2 Wuhan infected in African green monkey Vero E6 cells assessed as inhibition of viral replication pretreated for 15 mins followed by compound removal and induction of viral infection for 1 hr and subsequent removal of inoculum and further addition of media containing compound measured after 24 hrs by cell-based ELISA. The settings on record: Severe acute respiratory syndrome coronavirus 2, Wuhan, Vero C1008. Type of series: functional, organism-based.
On to `Cc1ccc(Cn2c(CSc3c(C)cc(C)cc3C)c(C(=O)NC3CCN(C(C)C)CC3)c3cc(O)c(Br)cc32)cc1`, for which the IC50 was 750 nM.
In the case of `CN(C)CCCCNC(=O)c1c(CSc2ccc(F)cc2)n(C)c2cc(Br)c(O)cc12`, the IC50 was 1800 nM.
Regarding `CCOC(=O)c1c(CSc2c(C)cc(C)cc2C)n(Cc2ccc(C)cc2)c2cc(Br)c(O)cc12`, the IC50 was determined as 1500 nM.

In a further series the test system is Vero C1008. Description: Cytotoxicity against African green monkey Vero E6 cells assessed as cell viability at 5 uM incubated for 48 hrs by MTT assay. The conditions noted are these: chlorocebus sabaeus, vero c1008, 48 h, 5 µM. Format: toxicity, cell-based.
In the case of `Cc1ccc(Cn2c(CSc3c(C)cc(C)cc3C)c(C(=O)NC3CCN(C(C)C)CC3)c3cc(O)c(Br)cc32)cc1`, the Activity result is reported as “Non-toxic”.
On the same count and under the same terms, with `CN(C)CCCCNC(=O)c1c(CSc2ccc(F)cc2)n(C)c2cc(Br)c(O)cc12` the entry was “Non-toxic”; with `CCOC(=O)c1c(CSc2c(C)cc(C)cc2C)n(Cc2ccc(C)cc2)c2cc(Br)c(O)cc12`, “Non-toxic”.

Test system in a further series: not listed separately
Briefly: Lipophilicity, LogD of compound in sodium phosphate buffer/n-octanol incubated for 3 hrs by LC-UV analysis. Format: physicochemical.
Settings: not given
For `Cc1ccc(Cn2c(CSc3c(C)cc(C)cc3C)c(C(=O)NC3CCN(C(C)C)CC3)c3cc(O)c(Br)cc32)cc1`, the logD (usually lipophilicity at a set pH, counting ionised and neutral species) at 3 h amounted to 3.95.
The same measure, in the same setting: in the case of `CN(C)CCCCNC(=O)c1c(CSc2ccc(F)cc2)n(C)c2cc(Br)c(O)cc12` it was 1.91; in that of `CCOC(=O)c1c(CSc2c(C)cc(C)cc2C)n(Cc2ccc(C)cc2)c2cc(Br)c(O)cc12`, 3.03.
